Molecular target: SARS2 protease (Severe acute respiratory syndrome coronavirus 2, UniProt P0DTD1)
Experiment: SARS-CoV-2 protease inhibition assay (SARS2 FRET protease assay)
Format: biochemical
Conditions: SARS-CoV-2 protease 25 nM, FRET, peptide substrate 1.3 μM, 30 minutes at 30° C., compounds 20 μM to 1.0 nM; read-out: IC50

Row | Compound | IC50 [nM]
1 | O=C(N[C@@H](CC1CCCCC1)C(=O)N[C@@H](CC1CC2(CCCCC2)NC1=O)C(=O)C(=O)N1CCCC1)c1cc2ccccc2[nH]1 (stereo partly drawn) [Compound C171, N-((2S)-3-cyclohexyl-1-((3,4-dioxo-1-(2-oxo-1-azaspiro[4.5]decan-3-yl)-4-(pyrrolidin-1-yl)butan-2-yl)amino)-1-oxopropan-2-yl)-1H-indole-2-carboxamide] | 11000
2 | CC1(C)CC(C[C@H](NC(=O)[C@H](CC2CCCCC2)NC(=O)OC(Cc2cccc(Cl)c2)c2cccc(Cl)c2)C(=O)C(=O)NC2CC2)C(=O)N1 (stereo partly drawn) [Compound C172, 1,2-Bis (3-Chlorophenyl) ethyl ((2S)-3-cyclohexyl-1-((4-(cyclopropylamino)-1-(5,5-dimethyl-2-oxopyrrolidin-3-yl)-3,4-dioxobutan-2-yl)amino)-1-oxopropan-2-yl)carbamate] | 1670
3 | O=C(N[C@@H](CC1CCCCC1)C(=O)N[C@@H](C[C@@H]1CCNC1=O)C(=O)C(=O)NC1CC1)OCc1cccc(Cl)c1 [Compound C173] | 1430
4 | CCCC[C@H](NC(=O)OC(c1ccccc1)C(C)(C)c1cccc(Cl)c1)C(=O)N[C@@H](CC1CCNC1=O)C(=O)C(=O)NC1CC1 (stereo partly drawn) [Compound C174, 2-(3-Chlorophenyl)-2-methyl-1-phenylpropyl ((S)-1-(((S)-4-(cyclopropylamino)-3,4-dioxo-1-((S)-2-oxopyrrolidin-3-yl)butan-2-yl)amino)-1-oxohexan-2-yl) carbamate] | 8.2
5 | O=C(N[C@@H](CC1CCCCC1)C(=O)NC(CC1CC2(CCOCC2)NC1=O)C(=O)C(=O)NC1CC1)OCc1cccc(Cl)c1 (stereo partly drawn) [Compound C176, 3-Chlorobenzyl ((2S)-3-cyclohexyl-1-((4-(cyclopropylamino)-3,4-dioxo-1-(2-oxo-8-oxa-1-azaspiro[4.5]decan-3-yl)butan-2-yl)amino)-1-oxopropan-2-yl)carbamate] | 1570
6 | CS(=O)(=O)N1CCC2(CC1)CC(CC(NC(=O)[C@H](CC1CCCCC1)NC(=O)OC1CCCC1Cc1cccc(Cl)c1)C(=O)C(=O)NC1CC1)C(=O)N2 (stereo partly drawn) [Compound C177, 2-(3-chlorobenzyl)cyclopentyl ((2S)-3-cyclohexyl-1-((4-(cyclopropylamino)-1-(8-(methylsulfonyl)-2-oxo-1,8-diazaspiro[4.5]decan-3-yl)-3,4-dioxobutan-2-yl)amino)-1-oxopropan-2-yl)carbamate] | 4390
7 | CS(=O)(=O)N1CCC2(CC1)CC(C[C@@H](C=O)NC(=O)[C@H](CC1CCCCC1)NC(=O)OCc1cccc(Cl)c1)C(=O)N2 (stereo partly drawn) [Compound C178, 3-Chlorobenzyl ((2S)-3-cyclohexyl-1-(((2S)-1-(8-(methylsulfonyl)-2-oxo-1,8-diazaspiro[4.5]decan-3-yl)-3-oxopropan-2-yl)amino)-1-oxopropan-2-yl)carbamate] | 71
8 | COc1cccc2[nH]c(C(=O)N[C@@H](CC3CCCCC3)C(=O)NC(C=O)CC3CC4(CCOCC4)NC3=O)cc12 (stereo partly drawn) [Compound C179, N-((2S)-3-cyclohexyl-1-oxo-1-((1-oxo-3-(2-oxo-8-oxa-1-azaspiro[4.5]decan-3-yl)propan-2-yl)amino)propan-2-yl)-4-methoxy-1H-indole-2-carboxamide] | 0.015
9 | CC1(C)CC(CC(C=O)NC(=O)[C@H](CC2CCCCC2)NC(=O)OC(Cc2cccc(Cl)c2)c2ccccc2)C(=O)N1 (stereo partly drawn) [Compound C180, 2-(3-Chlorophenyl)-1-phenylethyl ((2S)-3-cyclohexyl-1-((1-(5,5-dimethyl-2-oxopyrrolidin-3-yl)-3-oxopropan-2-yl)amino)-1-oxopropan-2-yl) carbamate] | 56.6
10 | CC(C)(c1cccc(Cl)c1)[C@@H](OC(=O)N[C@@H](CC1CCCCC1)C(=O)N[C@@H](C[C@@H]1CCNC1=O)C(=O)C(N)=O)c1cccc(F)c1 [Compound C182] | 2470
11 | CC(C)(c1cccc(Cl)c1)[C@H](OC(=O)N[C@@H](CC1CCCCC1)C(=O)N[C@@H](C[C@@H]1CCNC1=O)C(=O)C(N)=O)c1cccc(F)c1 [Compound C183] | 249
12 | CC(C)(c1cccc(Cl)c1)[C@@H](OC(=O)N[C@@H](CC1CCCCC1)C(=O)N[C@@H](C[C@@H]1CCNC1=O)C(=O)C(=O)NC1CC1)c1cccc(F)c1 [Compound C184, (S)-2-(3-chlorophenyl)-1-(3-fluorophenyl)-2-methylpropyl ((S)-3-cyclohexyl-1-(((S)-4-(cyclopropylamino)-3,4-dioxo-1-((S)-2-oxopyrrolidin-3-yl)butan-2-yl)amino)-1-oxopropan-2-yl)carbamate] | 2320
13 | CC(C)(c1cccc(Cl)c1)[C@H](OC(=O)N[C@@H](CC1CCCCC1)C(=O)N[C@@H](C[C@@H]1CCNC1=O)C(=O)C(=O)NC1CC1)c1cccc(F)c1 [Compound C185, (R)-2-(3-chlorophenyl)-1-(3-fluorophenyl)-2-methylpropyl ((S)-3-cyclohexyl-1-(((S)-4-(cyclopropylamino)-3,4-dioxo-1-((S)-2-oxopyrrolidin-3-yl)butan-2-yl)amino)-1-oxopropan-2-yl)carbamate] | 143
14 | CC(C)(c1cccc(Cl)c1)C(OC(=O)N[C@@H](CC1CCCCC1)C(=O)N[C@@H](C[C@@H]1CCNC1=O)C(=O)C(=O)NC1CC1)c1ccccc1Cl (stereo partly drawn) [Compound C186, 1-(2-Chlorophenyl)-2-(3-chlorophenyl)-2-methylpropyl ((S)-3-cyclohexyl-1-(((S)-4-(cyclopropylamino)-3,4-dioxo-1-((S)-2-oxopyrrolidin-3-yl)butan-2-yl)amino)-1-oxopropan-2-yl) carbamate] | 1240
15 | CC(C)C[C@H](NC(=O)OC(c1cccc(Cl)c1)C1(c2cccc(Cl)c2)CC1)C(=O)N[C@@H](C[C@@H]1CCNC1=O)C(=O)C(=O)NC1CC1 (stereo partly drawn) [Compound C187, (3-chlorophenyl)(1-(3-chlorophenyl)cyclopropyl)methyl ((S)-1-(((S)-4-(cyclopropylamino)-3,4-dioxo-1-((S)-2-oxopyrrolidin-3-yl)butan-2-yl)amino)-4-methyl-1-oxopentan-2-yl)carbamate] | 109
16 | CC(C)(C)C(=O)N1CCC2(CC1)CC(CC(NC(=O)[C@H](CC1CCCCC1)NC(=O)OCc1cccc(Cl)c1)C(=O)C(=O)NC1CC1)C(=O)N2 (stereo partly drawn) [Compound C188, 3-Chlorobenzyl ((2S)-3-cyclohexyl-1-((4-(cyclopropylamino)-3,4-dioxo-1-(2-oxo-8-pivaloyl-1,8-diazaspiro[4.5]decan-3-yl)butan-2-yl)amino)-1-oxopropan-2-yl)carbamate] | 1890
17 | CS(=O)(=O)N1CCC2(CC1)CC(CC(C=O)NC(=O)[C@H](CC1CCCCC1)NC(=O)OC1CCCC1Cc1cccc(Cl)c1)C(=O)N2 (stereo partly drawn) [Compound C189, 2-(3-Chlorobenzyl)cyclopentyl ((2S)-3-cyclohexyl-1-((1-(8-(methylsulfonyl)-2-oxo-1,8-diazaspiro[4.5]decan-3-yl)-3-oxopropan-2-yl)amino)-1-oxopropan-2-yl)carbamate] | 340
18 | COc1cccc2[nH]c(C(=O)N[C@@H](CC3CCCCC3)C(=O)NC(CC3CC4(CCOCC4)NC3=O)C(=O)C(=O)NC3CC3)cc12 (stereo partly drawn) [Compound C191, N-((2S)-3-Cyclohexyl-1-((4-(cyclopropylamino)-3,4-dioxo-1-(2-oxo-8-oxa-1-azaspiro[4.5]decan-3-yl)butan-2-yl)amino)-1-oxopropan-2-yl)-4-methoxy-1H-indole-2-carboxamide] | 305
19 | O=C(N[C@@H](CC1CCCCC1)C(=O)NC(CC1CC2(CCCCC2)NC1=O)C(=O)C(=O)NC1CC1)OC1CCCC1Cc1cccc(Cl)c1 (stereo partly drawn) [Compound C192, 2-(3-Chlorobenzyl)cyclopentyl ((2S)-3-cyclohexyl-1-((4-(cyclopropylamino)-3,4-dioxo-1-(2-oxo-1-azaspiro[4.5]decan-3-yl)butan-2-yl)amino)-1-oxopropan-2-yl)carbamate] | 617
20 | COc1cccc2[nH]c(C(=O)N[C@@H](CC3CCCCC3)C(=O)NC(C=O)CC3CC4(CCCCC4)NC3=O)cc12 (stereo partly drawn) [Compound C193, N-((2S)-3-Cyclohexyl-1-oxo-1-((1-oxo-3-(2-oxo-1-azaspiro[4.5]decan-3-yl)propan-2-yl)amino)propan-2-yl)-4-methoxy-1H-indole-2-carboxamide] | 0.7
21 | CC(C)C[C@H](NC(=O)OC1(Cc2ccccc2)CCC1)C(=O)N[C@@H](C[C@@H]1CCNC1=O)C(=O)CCl [Compound C194, 1-Benzylcyclobutyl ((S)-1-(((S)-4-chloro-3-oxo-1-((S)-2-oxopyrrolidin-3-yl)butan-2-yl)amino)-4-methyl-1-oxopentan-2-yl) carbamate] | 485
22 | O=C(N[C@@H](CC1CCCCC1)C(=O)NC(CC1CC2(CCCCC2)NC1=O)C(=O)C(=O)NC1CC1)OC(Cc1cccc(Cl)c1)c1cccc(Cl)c1 (stereo partly drawn) [Compound C195, 1,2-Bis(3-chlorophenyl)ethyl ((2S)-3-cyclohexyl-1-((4-(cyclopropylamino)-3,4-dioxo-1-(2-oxo-1-azaspiro[4.5]decan-3-yl)butan-2-yl)amino)-1-oxopropan-2-yl)carbamate] | 2010
23 | CC(C)C[C@H](NC(=O)OC1CCCC1Cc1cccc(Cl)c1)C(=O)N[C@@H](C[C@@H]1CCNC1=O)C(=O)C(=O)NC1CC1 (stereo partly drawn) [Compound C196, 2-(3-Chlorobenzyl)cyclopentyl ((S)-1-(((S)-4-(cyclopropylamino)-3,4-dioxo-1-((S)-2-oxopyrrolidin-3-yl)butan-2-yl)amino)-4-methyl-1-oxopentan-2-yl)carbamate] | 108
24 | O=C(N[C@@H](CC1CCCCC1)C(=O)N[C@@H](CC1CC2(CCCCC2)NC1=O)C(=O)CCl)OCc1cccc(Cl)c1 (stereo partly drawn) [Compound C197, 3-Chlorobenzyl ((2S)-1-(((2S)-4-chloro-3-oxo-1-(2-oxo-1-azaspiro[4.5]decan-3-yl)butan-2-yl)amino)-3-cyclohexyl-1-oxopropan-2-yl)carbamate] | 620
25 | CC1(C)CC(CC(C=O)NC(=O)[C@H](CC2CCCCC2)NC(=O)OCc2cccc(Cl)c2)C(=O)N1 (stereo partly drawn) [Compound C198, 3-chlorobenzyl ((2S)-3-cyclohexyl-1-((1-(5,5-dimethyl-2-oxopyrrolidin-3-yl)-3-oxopropan-2-yl)amino)-1-oxopropan-2-yl)carbamate] | 4.7

Reference: US20230159453A1 (COCRYSTAL PHARMA, INC., priority 2020, published 2023)
